Key:
[1] = test system: T cells (Th1 skewing); experiment: Th1 skewing culture; assay type: cell-based; conditions: BTR with IL-2, IL-12, anti-IL-4 cocktail
Method: To investigate the molecular mechanism of action of PDAC-mediated suppression of Th1 skewing, IDO siRNA was transiently transfected into PDACs by standard techniques. Th1 skewing was carried out as for the BTR reactions (see above) but supplemented with an additional Th1 skewing cytokine cocktail containing IL-2 (200 IU/mL), IL-12 (2 ng/mL) and anti-IL-4 (0.4 μg/ml).

[2] = target: T1, indoleamine 2,3-dioxygenase (IDO) (Homo sapiens, UniProt P14902); experiment: BTR T cell proliferation assay with IDO blockade; assay type: cell-based; conditions: 256 μM
T1 construct: endogenous in cells; host or cells: PDACs (placental stem cells) co-cultured with T cells in the BTR assay
T1 sequence (P14902 whole entry): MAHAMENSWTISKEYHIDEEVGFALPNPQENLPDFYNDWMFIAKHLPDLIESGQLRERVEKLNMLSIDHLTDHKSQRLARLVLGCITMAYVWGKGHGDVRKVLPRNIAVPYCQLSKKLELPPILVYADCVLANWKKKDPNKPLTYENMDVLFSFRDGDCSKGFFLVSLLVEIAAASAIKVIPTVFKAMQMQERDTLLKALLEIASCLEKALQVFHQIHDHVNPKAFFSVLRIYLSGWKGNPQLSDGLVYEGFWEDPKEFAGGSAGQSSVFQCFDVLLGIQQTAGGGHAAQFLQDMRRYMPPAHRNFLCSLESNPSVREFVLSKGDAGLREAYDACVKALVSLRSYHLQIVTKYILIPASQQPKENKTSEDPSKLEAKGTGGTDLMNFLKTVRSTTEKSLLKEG
Text: To investigate the mechanism of action of PDAC-mediated suppression of T cell proliferation, pharmacological inhibitors or neutralizing antibodies were used to block the activity of prostaglandin E2 (PGE2), inducible nitric oxide synthase (iNOS), transforming growth factor beta (TGF-β), interleukin-10 (IL-10) and IDO in an in vitro T cell proliferation assay (BTR).

[3] = test system: chick chorioallantoic membrane (CAM); experiment: CAM angiogenesis assay using PDAC supernatants; assay type: in vivo; conditions: supernatant mixed with MATRIGEL 1:1; PDAC supernatants P<0.01, P<0.001, P<0.02; bFGF P<0.001
Text: Supernatant samples from MDA-MB-231 cells and PDACs were used in a second CAM assay as described above. bFGF and MDA-MB-231 supernatants were used as positive controls, medium and vehicle were used as negative controls.
Study Design: The study included 5 groups with 10 embryos in each group. The design of the study is described in Table 4.
CAM Assay Procedure: The assay procedure was the same as described in section 6.3.1, above. The only difference was that supernatant from each stem cell preparation or from MDA-MB-231 cells was used as test material. For dosing, each supernatant was mixed with MATRIGEL™ (1:1 by volume) and […] of the mixture was dosed to each embryo.

[4] = test system: chick chorioallantoic membrane (CAM); experiment: CAM angiogenesis assay using PDACs; assay type: in vivo; conditions: P<0.001, Student's t test
Method: Two separate CAM assays were conducted. In the first CAM assay, intact cell pellets from different preparations of PDAC were evaluated. In the second CAM assay, supernatants of different PDAC preparations were evaluated. Fibroblast growth factor (bFGF) was used as a positive control, and MDA-MB-231 human breast cancer cells as a reference, vehicle and medium controls were used as negative controls. The endpoint of the study was to determine the blood vessel densities of all treatment and control groups.
PDACs, prepared as described above and cryopreserved, were used. PDACs were thawed for dosing and the number of cells dosed on the CAM was determined. […]
CAM Assay Procedure: Fresh fertile eggs were incubated for 3 days in a standard egg incubator at 37° C. for 3 days. […] On Day 8, embryos were removed from the incubator and kept at room temperature while blood vessel density was determined under each “O” ring using an image capturing system at a magnification of 100×.
Blood vessel density was measured by an angiogenesis scoring system that used arithmetic numbers 0 to 5, or exponential numbers 1 to 32, to indicate the number of blood vessels present at the treatment sites on the CAM. […] The percent of inhibition at each dosing site was calculated using the score recorded for that site divided by the mean score obtained from control samples for each individual experiment. […]

In the case of Cn1cc(C[C@H](N)C(=O)O)c2ccccc21 [1 MT, 1-methyl tryptophan], the “rescue of PDAC-mediated suppression of Th1 skewing” value [1] is reported as “completely rescued”.
In the case of N[C@@H](Cc1c[nH]c2ccccc12)C(=O)O [L-Trp, L-trptophan], the “rescue of PDAC-mediated suppression of Th1 skewing” value [1] is reported as “completely rescued” and the “rescue of T cell proliferation from PDAC-mediated suppression” value [2] is reported as “substantially rescued”.
“bFGF: basic fibroblast growth factor (positive control)” was tested, and the “blood vessel induction versus vehicle controls” value [3] was “potent induction of blood vessel formation” and the “blood vessel density score versus vehicle control CAMs” value [4] was “statistically significantly higher”.
